# Experiments:
# Format in all cases: in vivo
# [1] = test system: redroot pigweed (Amaranthus retroflexus, AMARE); experiment: Pre-emerge test, greenhouse herbicide activity screening; conditions: pre-emerge, 14 days after application, scale 0-100
# Procedure, shortened: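 Visual ratings on a 0-100 scale (0 no damage, 100 all plants dead) were taken at 14 days after treatment. Rates of 15-1000 g ai/ha in acetone, 187 l/ha, were sprayed onto soil one day after planting (pre-emerge) or onto 2-3 leaf plants with 0.25% v/v surfactant (post-emerge).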
# [2] = test system: barnyardgrass (Echinochloa crus-galli, ECHCG); experiment: as above; conditions: pre-emerge, 14 days after application, scale 0-100
# Procedure, shortened: (§1)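 Compounds in acetone were track-sprayed at 187 l/ha, 15–1000 g ai/ha, onto sandy loam pots. Pre-emerge seeds were sown one day before spraying, with surface watering afterwards. Post-emerge plants were at the 2–3 leaf stage and sprayed with 0.25% v/v non-ionic surfactant. Injury was rated 0–100 at 14 days.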
# [3] = test system: green foxtail (Setaria viridis, SETVI); experiment: as above; conditions: pre-emerge, 14 days after application, scale 0-100
# Procedure, shortened: as §1
# [4] = test system: ivyleaf morningglory (Ipomoea hederacea, IPOHE); experiment: as above; conditions: pre-emerge, 14 days after application, scale 0-100
# Procedure, shortened: as §1
# [5] = test system: johnsongrass (Sorghum halepense, SORHA); experiment: as above; conditions: pre-emerge, 14 days after application, scale 0-100
# Procedure, shortened: as §1
# [6] = test system: lambsquarters (Chenopodium album, CHEAL); experiment: as above; conditions: pre-emerge, 14 days after application, scale 0-100
# Procedure, shortened: as §1
# [7] = test system: large crabgrass (Digitaria sanguinalis, DIGSA); experiment: as above; conditions: pre-emerge, 14 days after application, scale 0-100
# Procedure, shortened: as §1
# [8] = test system: sicklepod (Cassia obtusifolia, CASOB); experiment: as above; conditions: pre-emerge, 14 days after application, scale 0-100
# Procedure, shortened: as §1
# [9] = test system: velvetleaf (Abutilon theophrasti, ABUTH); experiment: as above; conditions: pre-emerge, 14 days after application, scale 0-100
# Procedure, shortened: as §1
# [10] = test system: field corn (Zea mays L., var. Dekalb 535, CORN); experiment: Pre-emerge test, crop safety; conditions: pre-emerge, 14 days after application, scale 0-100
# Procedure, shortened: (§2)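 Applied at 15–1000 g ai/ha from acetone in 187 l/ha spray volume. Post-emergence applications included 0.25% v/v non-ionic surfactant and reached plants sown 8–21 days before. Pre-emergence applications were incorporated by surface watering. Efficacy or crop damage was rated on a 0–100 scale after 14 days.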
# [11] = test system: upland rice (Oryza sp., var. Tebonnet, RICE); experiment: Pre-emerge test, crop safety; conditions: pre-emerge, 14 days after application, scale 0-100
# Procedure, shortened: as §2
# [12] = test system: barnyardgrass (Echinochloa crus-galli, ECHCG); experiment: Post-emerge test, greenhouse herbicide activity screening; conditions: post-emerge, 14 days after application, rating scale 0-100
# Procedure, shortened: (§3)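 Compounds in acetone were track-sprayed at 15-1000 g ai/ha (187 l/ha) on sandy loam pots: pre-emerge one day after seeding, post-emerge at 2-3 leaf stage with 0.25% v/v non-ionic surfactant. Phytotoxicity was rated 14 days later on a 0 (no damage) to 100 (complete death) scale.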
# [13] = test system: green foxtail (Setaria viridis, SETVI); experiment: as above; conditions: post-emerge, 14 days after application, rating scale 0-100
# Procedure, shortened: as §3
# [14] = test system: ivyleaf morningglory (Ipomoea hederacea, IPOHE); experiment: as above; conditions: post-emerge, 14 days after application, rating scale 0-100
# Procedure, shortened: as §3
# [15] = test system: johnsongrass (Sorghum halepense, SORHA); experiment: as above; conditions: post-emerge, 14 days after application, rating scale 0-100
# Procedure, shortened: as §3
# [16] = test system: lambsquarters (Chenopodium album, CHEAL); experiment: as above; conditions: post-emerge, 14 days after application, rating scale 0-100
# Procedure, shortened: as §3
# [17] = test system: large crabgrass (Digitaria sanguinalis, DIGSA); experiment: as above; conditions: post-emerge, 14 days after application, rating scale 0-100
# Procedure, shortened: as §3
# [18] = test system: redroot pigweed (Amaranthus retroflexus, AMARE); experiment: as above; conditions: post-emerge, 14 days after application, rating scale 0-100
# Procedure, shortened: as §3
# [19] = test system: sicklepod (Cassia obtusifolia, CASOB); experiment: as above; conditions: post-emerge, 14 days after application, rating scale 0-100
# Procedure, shortened: as §3
# [20] = test system: velvetleaf (Abutilon theophrasti, ABUTH); experiment: as above; conditions: post-emerge, 14 days after application, rating scale 0-100
# Procedure, shortened: as §3
# [21] = test system: field corn (Zea mays L., var. Dekalb 535, CORN); experiment: Post-emerge test, crop safety; conditions: post-emerge, 14 days after application, rating scale 0-100
# Procedure, shortened: as §1
# [22] = test system: upland rice (Oryza sp., var. Tebonnet, RICE); experiment: Post-emerge test, crop safety; conditions: post-emerge, 14 days after application, rating scale 0-100
# Procedure, shortened: as §1
smiles,measurement,setting,value
COc1c(Cl)cc(F)c(-n2c(=O)cc(C(F)(F)F)n(C)c2=O)c1NC(=O)C=Cc1ccccc1F [2-125],phytotoxicity rating AMARE,[1]; 63 g ai/ha,100
same,phytotoxicity rating AMARE,[1]; 250 g ai/ha,100
same,phytotoxicity rating ECHCG,[2]; 63 g ai/ha,10
same,phytotoxicity rating ECHCG,[2]; 250 g ai/ha,50
same,phytotoxicity rating SETVI,[3]; 63 g ai/ha,50
same,phytotoxicity rating SETVI,[3]; 250 g ai/ha,90
same,phytotoxicity rating IPOHE,[4]; 63 g ai/ha,0
same,phytotoxicity rating IPOHE,[4]; 250 g ai/ha,100
same,phytotoxicity rating SORHA,[5]; 63 g ai/ha,20
same,phytotoxicity rating SORHA,[5]; 250 g ai/ha,50
same,phytotoxicity rating CHEAL,[6]; 63 g ai/ha,100
same,phytotoxicity rating CHEAL,[6]; 250 g ai/ha,100
same,phytotoxicity rating DIGSA,[7]; 63 g ai/ha,30
same,phytotoxicity rating DIGSA,[7]; 250 g ai/ha,90
same,phytotoxicity rating CASOB,[8]; 63 g ai/ha,30
same,phytotoxicity rating CASOB,[8]; 250 g ai/ha,70
same,phytotoxicity rating ABUTH,[9]; 63 g ai/ha,100
same,phytotoxicity rating ABUTH,[9]; 250 g ai/ha,100
same,phytotoxicity rating CORN (crop damage),[10]; 63 g ai/ha,0
same,phytotoxicity rating CORN (crop damage),[10]; 250 g ai/ha,10
same,phytotoxicity rating RICE (crop damage),[11]; 63 g ai/ha,0
same,phytotoxicity rating RICE (crop damage),[11]; 250 g ai/ha,45
same,ECHCG phytotoxicity rating,[12]; 63 g ai/ha,20
same,ECHCG phytotoxicity rating,[12]; 250 g ai/ha,40
same,SETVI phytotoxicity rating,[13]; 63 g ai/ha,40
same,SETVI phytotoxicity rating,[13]; 250 g ai/ha,60
same,IPOHE phytotoxicity rating,[14]; 63 g ai/ha,100
same,IPOHE phytotoxicity rating,[14]; 250 g ai/ha,100
same,SORHA phytotoxicity rating,[15]; 63 g ai/ha,30
same,SORHA phytotoxicity rating,[15]; 250 g ai/ha,40
same,CHEAL phytotoxicity rating,[16]; 63 g ai/ha,100
same,CHEAL phytotoxicity rating,[16]; 250 g ai/ha,100
same,DIGSA phytotoxicity rating,[17]; 63 g ai/ha,20
same,DIGSA phytotoxicity rating,[17]; 250 g ai/ha,40
same,AMARE phytotoxicity rating,[18]; 63 g ai/ha,100
same,AMARE phytotoxicity rating,[18]; 250 g ai/ha,100
same,CASOB phytotoxicity rating,[19]; 63 g ai/ha,90
same,CASOB phytotoxicity rating,[19]; 250 g ai/ha,100
same,ABUTH phytotoxicity rating,[20]; 63 g ai/ha,100
same,ABUTH phytotoxicity rating,[20]; 250 g ai/ha,100
same,CORN phytotoxicity rating (crop damage),[21]; 63 g ai/ha,10
same,CORN phytotoxicity rating (crop damage),[21]; 250 g ai/ha,20
same,RICE phytotoxicity rating (crop damage),[22]; 63 g ai/ha,40
same,RICE phytotoxicity rating (crop damage),[22]; 250 g ai/ha,70

# Source: patent US6355799B1, “Substituted benzene compounds, process for their preparation, and herbicidal and defoliant compositions containing them” (ISK Americas Incorporated, priority 1997, dated 2002)
